Laboratory results published in paper PMC9898759, “The Saccharomyces cerevisiae Yta7 ATPase hexamer contains a unique bromodomain tier that functions in nucleosome disassembly” (The Journal of Biological Chemistry, 2022).

Experiments:
6xHis-MBP-BIM = assay: AlphaScreen binding of H3 peptide to MBP-fused BIM; parameters: species or system Saccharomyces cerevisiae; settings: n = 3, Fig. S9D
Description: (§1) We performed AlphaScreen assays using a 6xHis detection kit (PerkinElmer). The biotinylated unmodified and the all-four-lysine acetylated H3 peptide (1–22 amino acids) were synthesized by GenScript. We individually mixed the purified 50 nM 10xHis-3xFlag-Yta7, 10xHis-3xFlag-Yta7ΔBRD, 10xHis-3xFlag-Yta7ΔBIMΔBRD, 6xHis-MBP-BIM, 6xHis-MBP-BRD, and the complex of 6xHis-MBP-BRD and MBP-BIM with 50 nM biotinylated and unmodified or acetylated H3 (1–22 amino acid) peptides, respectively, and incubated the mixtures on ice for 1.5 h with the streptavidin-coated donor beads (5 μg/ml) and nickel-chelated acceptor beads (5 μg/ml) in 50 mM Mops (pH 7.4), 100 mM NaCl, and bovine serum albumin (0.1 mg/ml). For nucleosome-binding assay, we used 50 nM 10xHis-3xFlag-Yta7 and 100 nM biotinylated human nucleosome. We incubated the mixture for 2 h on ice with the same concentration donor and acceptor beads. The donor beads contain a photosensitizer that converts ambient oxygen into short-lived singlet oxygen upon 680 nm light activation. When the acceptor beads are brought close enough to the donor beads by interaction between His-tagged proteins and biotinylated peptides, singlet oxygen can diffuse from the donor to the acceptor beads to transfer the energy to the thioxene derivatives of the acceptor beads, resulting in light emission at 520 to 620 nm range.

[1] = system: complex of 6xHis-MBP-BRD and MBP-BIM; assay: AlphaScreen binding of H3 peptide to BRD and BIM together; parameters: species or system Saccharomyces cerevisiae
Description: as §1

Yta7_ΔBIM ΔBRD = assay: AlphaScreen binding of H3 peptide to Yta7 lacking BIM and BRD; parameters: species or system Saccharomyces cerevisiae; settings: 50 nM construct (320–350 and 954–1132 deleted), 50 nM biotinylated H3 (1–22), pH 7.4, on ice 1.5 h, n = 3, Fig. S9B
Description: as §1

Yta7 = assay: AlphaScreen binding of biotinylated H3 N-tail peptide (unmodified or acetylated) to full-length Yta7; parameters: species or system Saccharomyces cerevisiae; settings: for binding to Yta7: 50 nM 10xHis-3xFlag-Yta7, 50 nM biotinylated H3 (1–22 amino acid) peptide, 50 mM Mops pH 7.4, 100 mM NaCl, BSA 0.1 mg/ml, on ice 1.5 h
Description: as §1

Yta7_ΔBRD = assay: AlphaScreen binding of H3 peptide to Yta7 lacking BRD; parameters: species or system Saccharomyces cerevisiae; settings: 50 nM construct (954–1132 deleted), 50 nM biotinylated H3 (1–22), pH 7.4, on ice 1.5 h, n = 3, Fig. S9B
Description: as §1

[2] = Malachite Green ATPase assay of Yta7; assay type: biochemical; settings: Malachite Green phosphate assay, 2 mM ATP, 25 mM Hepes pH 7.6, 2 mM MgCl2, 150 mM KCl, 1 mM DTT, room temperature 1 h, A620; three independent experiments; Fig. S1C
Description: The Malachite Green Phosphate assay kit (Sigma–Aldrich) was used to measure the ATP hydrolysis rate of Yta7 present in different nucleotides. Yta7 was incubated in assay buffer (25 mM Hepes [pH 7.6], 2 mM MgCl2, 150 mM KCl, and 1 mM DTT) with or without histone-3 peptide (1–24 amino acids). Either 2 mM ATP or 2 mM ATPγS or 2 mM ADP (negative control) was added to initiate the reaction at room temperature for 1 h. Absorbance at 620 nm was measured in a Molecular Devices SpectraMax M2e microplate reader.

[3] = AlphaScreen, three independent experiments in triplicate

## unmodified H3 peptide (1–22 amino acids)
6xHis-MBP-BIM; 50 nM 6xHis-MBP-BIM, 50 nM biotinylated H3 (1–22), pH 7.4, on ice 1.5 h
  binding signal to BIM alone: weak binding signal
6xHis-MBP-BIM; 6xHis-MBP negative control, compared with 6xHis-MBP-BRD
  binding signal to BIM alone relative to MBP control and BRD alone: above the MBP control but weaker than BRD alone
[1]; BRD–BIM complex vs full-length Yta7 hexamer
  binding signal to BRD–BIM relative to Yta7 hexamer: an order of magnitude weaker
[1]; complex of 6xHis-MBP-BRD and MBP-BIM vs 6xHis-MBP-BRD, 50 nM biotinylated H3 (1–22), pH 7.4, n = 3, Fig. S9D
  binding signal to BIM and BRD together relative to BRD alone: stronger than BRD alone
Yta7_ΔBIM ΔBRD
  binding to Yta7_ΔBIM ΔBRD: neither Yta7_ΔBRD nor Yta7_ΔBIM ΔBRD bind
Yta7; [3]
  binding to Yta7: bound Yta7
Yta7; AlphaScreen, 50 nM Yta7, 50 nM biotinylated H3 (1–22) peptides, pH 7.4, on ice 1.5 h, means of three independent experiments performed in triplicate, Fig. 2H
  binding signal relative to the acetylated version: five times stronger
Yta7; AlphaScreen, biotinylated H3 (1-22 aa), in the presence of ADP or ATPγS, three independent experiments in triplicate, Fig. S1E
  affinity / binding in the presence of ADP or ATPγS: unaffected
Yta7; AlphaScreen, unmodified compared with acetylated H3 (1–22) peptide, qualitative, listed as unmodified peptide
  relative affinity, unmodified vs acetylated H3 peptide: higher affinity
Yta7_ΔBRD
  binding to Yta7_ΔBRD: neither Yta7_ΔBRD nor Yta7_ΔBIM ΔBRD bind

## Yta7: full-length S. cerevisiae Yta7 AAA+ ATPase hexamer, 10xHis and 3xFLAG tagged
[2]
  ATP hydrolysis: hydrolyzed ATP

## 24-residue H3 N-tail: unmodified H3 peptides (1–24 amino acids) (GenScript)
Yta7; 24-residue H3 N-tail, Fig. S1, C and D
  interaction with Yta7 (24-residue H3 N-tail): interacted with

## acetylated H3 peptide (1–22 amino acids): biotinylated all-four-lysine acetylated H3 peptide (1–22 amino acids), synthesized by GenScript
Yta7; [3]
  binding to Yta7: bound Yta7
